{"source": "patent US12065428B2", "about": "“Anti-viral compounds” (Aligos Therapeutics, Inc., priority 2021, dated 2024)", "key": {"SARS-Cov-2 3CLpro": {"target": "T1, SARS-Cov-2 3CLpro (Severe acute respiratory syndrome coronavirus 2, UniProt P0DTD1)", "T1 construct": "SARS-Cov-2 3CLpro and HRV3C Duplex Assay", "assay": "SARS-Cov-2 3CLpro and HRV3C duplex assay (SAMDI-MS): 3CLpro", "assay_type": "biochemical", "details": "3CLpro, duplex assay, 30 mins preincubation; class symbols; read-out: SARS-Cov-2 IC50"}, "[1]": {"assay": "Cytotoxicity plates without OC43 virus in HeLa cells", "assay_type": "cell-based", "details": "human, HeLa cells (uninfected)", "how_it_was_run": "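HeLa cells pretreated 4 h with serially diluted compounds, then infected with OC43 at a dose giving 80-90% viability loss and incubated 6 days at 33 °C. Viability by CellTiter-Glo luminescence; EC50 from four-parameter fit of CPE inhibition. Uninfected parallel plates gave cytotoxicity.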"}, "HRV3C": {"target": "T2, HRV3C (Human rhinovirus 14, UniProt P03303)", "T2 construct": "SARS-Cov-2 3CLpro and HRV3C Duplex Assay", "T2 sequence (P03303 1538-1719)": "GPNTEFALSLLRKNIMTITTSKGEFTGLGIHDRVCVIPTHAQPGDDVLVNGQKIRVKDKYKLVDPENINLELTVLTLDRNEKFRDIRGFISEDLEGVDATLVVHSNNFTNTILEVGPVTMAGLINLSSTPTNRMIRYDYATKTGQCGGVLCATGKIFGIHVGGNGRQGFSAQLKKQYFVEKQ", "assay": "biochemical", "details": "read-out: HRV IC50"}, "[2]": {"system": "human beta-coronavirus OC43", "assay": "OC43 coronavirus assay in HeLa cells (cytopathic effect, cell-titer-glo)", "assay_type": "cell-based"}, "[3]": {"system": "SARS-CoV-2-GHB-03021/2020", "assay": "microbe, parasite or virus in culture", "assay_type": "cell-based", "details": "Severe acute respiratory syndrome coronavirus 2, Vero C1008, 96 h; read-out: VeroE6 + CP (EC50)"}, "human cathepsin L": {"target": "T3, human cathepsin L (Homo sapiens, UniProt P07711)", "T3 construct": "purchased R&D Systems", "T3 sequence (P07711 114-333)": "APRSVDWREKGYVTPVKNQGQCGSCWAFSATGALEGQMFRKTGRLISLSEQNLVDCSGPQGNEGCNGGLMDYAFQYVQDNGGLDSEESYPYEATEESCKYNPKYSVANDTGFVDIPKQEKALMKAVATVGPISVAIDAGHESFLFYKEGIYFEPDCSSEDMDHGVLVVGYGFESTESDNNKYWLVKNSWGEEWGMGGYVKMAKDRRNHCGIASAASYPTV", "assay": "Cathepsin L assay (Z-FR-AMC fluorescence)", "assay_type": "biochemical", "details": "10 pM human cathepsin L, 30 mins preincubation; class symbols", "how_it_was_run": "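Reactions began by adding 2 μM (final) Z-FR-AMC substrate to 10 pM human cathepsin L that had been preincubated 30 min with inhibitor. Kinetic AMC fluorescence at 355/460 nm over 30 min at 2-min intervals; four-parameter fitting gave IC50 values.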"}, "3CLpro": {"target": "3CLpro (Severe acute respiratory syndrome coronavirus 2, UniProt P0DTD1)", "details": "cited from earlier work"}, "SARS-CoV-2": {"system": "SARS-CoV-2", "details": "cited from earlier work"}, "[4]": {"details": "HRV3C, duplex assay, 30 mins preincubation, class symbols"}, "[5]": {"details": "Betacoronavirus 1, 144 h, OC43 in HeLa cells, 6 days at 33° C., class symbols, read-out: EC50"}}, "note": "Read-outs that look alike come from different tables or passages of the source.", "data": [{"smiles": "O=C(NC1CC1)C(=O)[C@H](C[C@@H]1CCNC1=O)NC(=O)[C@@H]1CC2(CCN1C(=O)C1Cc3ccccc3C1)CC2", "note": "[Example 6, (S)—N—((S)-4-(cyclopropylamino)-3,4-dioxo-1-((S)-2-oxopyrrolidin-3-yl)butan-2-yl)-6-(2,3-dihydro-1H-indene-2-carbonyl)-6-azaspiro[2.5]octane-5-carboxamide]", "values": [{"measurement": "IC50", "setting": "SARS-Cov-2 3CLpro", "result": "20 to 200", "unit": "nM"}, {"measurement": "CC50 at 6 days", "setting": "[1]; class symbols", "result": "≥ 100000", "unit": "nM"}, {"measurement": "IC50", "setting": "HRV3C; [4]", "result": "200 to 2000", "unit": "nM"}, {"measurement": "EC50", "setting": "[2]; [5]", "result": "100 to 1000", "unit": "nM"}, {"measurement": "EC50", "setting": "[3]", "result": "< 1000", "unit": "nM"}, {"measurement": "IC50", "setting": "human cathepsin L", "result": "≥ 10000", "unit": "nM"}]}, {"smiles": "Cn1nc2ccccc2c1C(=O)N1CCC2(CC2)C[C@H]1C(=O)N[C@@H](C[C@@H]1CCNC1=O)C(=O)C(=O)NC1CC1", "note": "[Example 7]", "values": [{"measurement": "IC50", "setting": "SARS-Cov-2 3CLpro", "result": "< 20", "unit": "nM"}, {"measurement": "CC50 at 6 days", "setting": "[1]; class symbols", "result": "≥ 100000", "unit": "nM"}, {"measurement": "IC50", "setting": "HRV3C; [4]", "result": "200 to 2000", "unit": "nM"}, {"measurement": "EC50", "setting": "[2]; [5]", "result": "100 to 1000", "unit": "nM"}, {"measurement": "EC50", "setting": "[3]", "result": "1000 to 10000", "unit": "nM"}, {"measurement": "IC50", "setting": "human cathepsin L", "result": "1000 to 10000", "unit": "nM"}]}, {"smiles": "O=C(NC1CC1)C(=O)[C@H](C[C@@H]1CCNC1=O)NC(=O)[C@@H]1CC2(CCN1C(=O)c1cc3ccccc3n1C1CC1)CC2", "note": "[Example 8]", "values": [{"measurement": "IC50", "setting": "SARS-Cov-2 3CLpro", "result": "< 20", "unit": "nM"}, {"measurement": "CC50 at 6 days", "setting": "[1]; class symbols", "result": "≥ 100000", "unit": "nM"}, {"measurement": "IC50", "setting": "HRV3C; [4]", "result": "2000 to 20000", "unit": "nM"}, {"measurement": "EC50", "setting": "[2]; [5]", "result": "100 to 1000", "unit": "nM"}, {"measurement": "EC50", "setting": "[3]", "result": "< 1000", "unit": "nM"}, {"measurement": "IC50", "setting": "human cathepsin L", "result": "≥ 10000", "unit": "nM"}]}, {"smiles": "O=C(NC1CC1)C(=O)[C@H](C[C@@H]1CCNC1=O)NC(=O)[C@@H]1CC2(CCN1C(=O)c1cc3ccccn3n1)CC2", "note": "[Example 9]", "values": [{"measurement": "IC50", "setting": "SARS-Cov-2 3CLpro", "result": "200 to 2000", "unit": "nM"}, {"measurement": "CC50 at 6 days", "setting": "[1]; class symbols", "result": "≥ 100000", "unit": "nM"}, {"measurement": "IC50", "setting": "HRV3C; [4]", "result": "2000 to 20000", "unit": "nM"}, {"measurement": "EC50", "setting": "[2]; [5]", "result": "1000 to 10000", "unit": "nM"}, {"measurement": "EC50", "setting": "[3]", "result": "1000 to 10000", "unit": "nM"}, {"measurement": "IC50", "setting": "human cathepsin L", "result": "≥ 10000", "unit": "nM"}]}, {"smiles": "Cn1nc(C(=O)N2CCC3(CC3)C[C@H]2C(=O)N[C@@H](C[C@@H]2CCNC2=O)C(=O)C(=O)NC2CC2)c2ccccc21", "note": "[Example 10]", "values": [{"measurement": "IC50", "setting": "SARS-Cov-2 3CLpro", "result": "20 to 200", "unit": "nM"}, {"measurement": "CC50 at 6 days", "setting": "[1]; class symbols", "result": "≥ 100000", "unit": "nM"}, {"measurement": "IC50", "setting": "HRV3C; [4]", "result": "200 to 2000", "unit": "nM"}, {"measurement": "EC50", "setting": "[2]; [5]", "result": "1000 to 10000", "unit": "nM"}, {"measurement": "EC50", "setting": "[3]", "result": "1000 to 10000", "unit": "nM"}, {"measurement": "IC50", "setting": "human cathepsin L", "result": "≥ 10000", "unit": "nM"}]}, {"smiles": "Cn1cc(C(=O)N2CCC3(CC3)C[C@H]2C(=O)N[C@@H](C[C@@H]2CCNC2=O)C(=O)C(=O)NC2CC2)c2ccccc21", "note": "[Example 11]", "values": [{"measurement": "IC50", "setting": "SARS-Cov-2 3CLpro", "result": "20 to 200", "unit": "nM"}, {"measurement": "CC50 at 6 days", "setting": "[1]; class symbols", "result": "≥ 100000", "unit": "nM"}, {"measurement": "IC50", "setting": "HRV3C; [4]", "result": "< 20", "unit": "nM"}, {"measurement": "EC50", "setting": "[2]; [5]", "result": "1000 to 10000", "unit": "nM"}, {"measurement": "EC50", "setting": "[3]", "result": "1000 to 10000", "unit": "nM"}, {"measurement": "IC50", "setting": "human cathepsin L", "result": "1000 to 10000", "unit": "nM"}]}, {"smiles": "O=C(NC1CC1)C(=O)C(C[C@@H]1CCNC1=O)NC(=O)[C@@H]1CC2(CCN1C(=O)c1cc3cccc(Cl)c3s1)CC2", "note": "(stereo partly drawn) [Example 12, (5S)-6-(7-chlorobenzo[b]thiophene-2-carbonyl)-N-(4-(cyclopropylamino)-3,4-dioxo-1-((S)-2-oxopyrrolidin-3-yl)butan-2-yl)-6-azaspiro[2.5]octane-5-carboxamide]", "values": [{"measurement": "IC50", "setting": "SARS-Cov-2 3CLpro", "result": "< 20", "unit": "nM"}, {"measurement": "CC50 at 6 days", "setting": "[1]; class symbols", "result": "10000 to 100000", "unit": "nM"}, {"measurement": "IC50", "setting": "HRV3C; [4]", "result": "20 to 200", "unit": "nM"}, {"measurement": "EC50", "setting": "[2]; [5]", "result": "100 to 1000", "unit": "nM"}, {"measurement": "EC50", "setting": "[3]", "result": "< 1000", "unit": "nM"}, {"measurement": "IC50", "setting": "human cathepsin L", "result": "1000 to 10000", "unit": "nM"}]}, {"smiles": "CN1CCN(c2ccc(C(=O)N3CCC4(CC4)C[C@H]3C(=O)N[C@@H](C[C@@H]3CCNC3=O)C(=O)C(=O)NC3CC3)cc2)CC1", "note": "[Example 13, (3S)—N-cyclopropyl-3-{[(5S)-6-[4-(4-methylpiperazin-1-yl)benzoyl]-6-azaspiro[2.5]octan-5-yl]formamido}-2-oxo-4-[(3S)-2-oxopyrrolidin-3-yl]butanamide]", "values": [{"measurement": "IC50", "setting": "SARS-Cov-2 3CLpro", "result": "200 to 2000", "unit": "nM"}, {"measurement": "CC50 at 6 days", "setting": "[1]; class symbols", "result": "≥ 100000", "unit": "nM"}, {"measurement": "IC50", "setting": "HRV3C", "result": "> 10000", "unit": "nM"}, {"measurement": "EC50", "setting": "[2]; Betacoronavirus 1, OC43, HeLa", "result": "> 10000", "unit": "nM"}, {"measurement": "EC50", "setting": "[3]", "result": "> 50000", "unit": "nM"}, {"measurement": "IC50", "setting": "human cathepsin L", "result": "1000 to 10000", "unit": "nM"}]}, {"smiles": "N#C[C@H](C[C@@H]1CCNC1=O)NC(=O)[C@@H]1CC2(CCN1C(=O)c1ncc(-c3ccccc3)s1)CC2", "note": "[Example 52, (S)—N—((S)-1-cyano-2-((S)-2-oxopyrrolidin-3-yl)ethyl)-6-(5-phenylthiazole-2-carbonyl)-6-azaspiro[2.5]octane-5-carboxamide]", "values": [{"measurement": "IC50", "setting": "SARS-Cov-2 3CLpro", "result": "200 to 2000", "unit": "nM"}, {"measurement": "CC50 at 6 days", "setting": "[1]; numeric bound, unit inferred", "result": "> 100000", "unit": "nM"}, {"measurement": "IC50", "setting": "HRV3C; HRV3C, duplex assay, numeric bound: >10 indicates an IC50>10000 nM", "result": "> 10000", "unit": "nM"}, {"measurement": "EC50", "setting": "[2]; Betacoronavirus 1, OC43, HeLa", "result": "> 10000", "unit": "nM"}, {"measurement": "EC50", "setting": "[3]", "result": "10000 to 100000", "unit": "nM"}, {"measurement": "IC50", "setting": "human cathepsin L", "result": "≥ 10000", "unit": "nM"}]}, {"smiles": "CN1CCN(C(=O)N[C@@H](Cc2ccccc2)C(=O)N[C@H](/C=C/S(=O)(=O)c2ccccc2)CCc2ccccc2)CC1", "note": "[Example K117777]", "values": [{"measurement": "inhibitory effect on the 3CLpro", "setting": "3CLpro", "result": "lacks an inhibitory effect"}, {"measurement": "antiviral effect when TMPRSS2 was expressed", "setting": "SARS-CoV-2; A549-ACE2 expressing TMPRSS2 (Steuten et al.)", "result": "abolished"}, {"measurement": "inhibition of SARS-CoV-2", "setting": "SARS-CoV-2; VeroE6, A549-ACE2 and/or HeLa-ACE2 (Mellott et al.)", "result": "potent inhibition"}]}]}
